Assay results reported in the supplement of paper PMC4862054.

Assays:
Conditions in all cases: incubation time: 72 h
BT-474 [1] = assay: normalised response (% of control), CellTox Green; higher = less cell death (100 = DMSO, 0 = benzethonium chloride kill control)
Outline: (§1)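 Normalised signals at single concentrations make up the values. They come from breast cancer cell lines seeded (20 µl suspension) into 384-well plates with compound at 5 concentrations in 10-fold steps over a compound-specific 10,000-fold range, incubated 72 h, and read for CellTox Green fluorescence then CellTiter-Glo luminescence. Each plate was normalised to 0.1 % DMSO (100) and a positive kill control (0).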

BT-549 [2] = assay: as above
Outline: as §1

CAL-120 [3] = assay: as above
Outline: as §1

CAL-148 [4] = assay: as above
Outline: as §1

CAL-51 [5] = assay: as above
Outline: as §1

CAL-85-1 [6] = assay: as above
Outline: as §1

DU-4475 [7] = assay: as above
Outline: as §1

HCC1143 [8] = assay: as above
Outline: as §1

HCC1599 [9] = assay: as above
Outline: as §1

HCC1937 [10] = assay: as above
Outline: as §1

HDQ-P1 [11] = assay: as above
Outline: as §1

Hs578T [12] = assay: as above
Outline: as §1

MCF-10A [13] = assay: as above
Outline: as §1

MDA-MB-231 [14] = assay: as above
Outline: as §1

MDA-MB-436 [15] = assay: as above
Outline: as §1

MDA-MB-453 [16] = assay: as above
Outline: as §1

MDA-MB-468 [17] = assay: as above
Outline: as §1

MFM-223 [18] = assay: as above
Outline: as §1

BT-474 [19] = assay: normalised response (% of control), CellTiter-Glo; higher = more viable cells (100 = DMSO, 0 = benzethonium chloride kill control)
Protocol: (§2)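 DSRT, 72 h incubation, CellTox Green / CellTiter-Glo readout. Signal is normalised to DMSO and benzethonium chloride controls. Value is the normalised response at dose 3.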

BT-549 [20] = assay: as above
Protocol: as §2

CAL-120 [21] = assay: as above
Protocol: as §2

CAL-148 [22] = assay: as above
Protocol: as §2

CAL-51 [23] = assay: as above
Protocol: as §2

CAL-85-1 [24] = assay: as above
Protocol: as §2

DU-4475 [25] = assay: as above
Protocol: as §2

HCC1143 [26] = assay: as above
Protocol: as §2

HCC1599 [27] = assay: as above
Protocol: as §2

HCC1937 [28] = assay: as above
Protocol: as §2

HDQ-P1 [29] = assay: as above
Protocol: as §2

Hs578T [30] = assay: as above
Protocol: as §2

MCF-10A [31] = assay: as above
Protocol: as §2

MDA-MB-231 [32] = assay: as above
Protocol: as §2

MDA-MB-436 [33] = assay: as above
Protocol: as §2

MDA-MB-453 [34] = assay: as above
Protocol: as §2

MDA-MB-468 [35] = assay: as above
Protocol: as §2

MFM-223 [36] = assay: as above
Protocol: as §2

SK-BR-3 = assay: as above
Protocol: as §2

Compound | normalised response (BT-474 [1]) [%] | normalised response (BT-549 [2]) [%] | normalised response (CAL-120 [3]) [%] | normalised response (CAL-148 [4]) [%] | normalised response (CAL-51 [5]) [%] | normalised response (CAL-85-1 [6]) [%] | normalised response (DU-4475 [7]) [%] | normalised response (HCC1143 [8]) [%] | normalised response (HCC1599 [9]) [%] | normalised response (HCC1937 [10]) [%] | normalised response (HDQ-P1 [11]) [%] | normalised response (Hs578T [12]) [%] | normalised response (MCF-10A [13]) [%] | normalised response (MDA-MB-231 [14]) [%] | normalised response (MDA-MB-436 [15]) [%] | normalised response (MDA-MB-453 [16]) [%] | normalised response (MDA-MB-468 [17]) [%] | normalised response (MFM-223 [18]) [%] | normalised response (BT-474 [19]) [%] | normalised response (BT-549 [20]) [%] | normalised response (CAL-120 [21]) [%] | normalised response (CAL-148 [22]) [%] | normalised response (CAL-51 [23]) [%] | normalised response (CAL-85-1 [24]) [%] | normalised response (DU-4475 [25]) [%] | normalised response (HCC1143 [26]) [%] | normalised response (HCC1599 [27]) [%] | normalised response (HCC1937 [28]) [%] | normalised response (HDQ-P1 [29]) [%] | normalised response (Hs578T [30]) [%] | normalised response (MCF-10A [31]) [%] | normalised response (MDA-MB-231 [32]) [%] | normalised response (MDA-MB-436 [33]) [%] | normalised response (MDA-MB-453 [34]) [%] | normalised response (MDA-MB-468 [35]) [%] | normalised response (MFM-223 [36]) [%] | normalised response (SK-BR-3) [%]
c1ccc2c(CCNc3ccc(Nc4ccncc4)cc3)c[nH]c2c1 [Serdemetan] (100 nM) | 100 | 103 | 96.9 | 96.1 | 91.4 | 103 | 100 | 104 | 93.7 | 98.8 | 51.9 | 99.5 | 88 | 93.5 | 88.8 | 103 | 83.8 | 93.3 | 90.6 | 101 | 98.2 | 91.8 | 84.5 | 103 | 101 | 99.2 | 122 | 92 | 105 | 93.2 | 95.2 | 98 | 92 | 106 | 95.1 | 99.9 | 98.3
CNC(=O)c1cc(Oc2ccc(NC(=O)Nc3ccc(Cl)c(C(F)(F)F)c3)c(F)c2)ccn1 [Regorafenib] (100 nM) | 98.9 | 109 | 99.8 | 101 | 105 | 108 | 103 | 87.8 | 108 | 99.6 | 101 | 99.4 | 98.1 | 74.6 | 90.9 | 103 | 135 | 88.1 | 99 | 103 | 98.1 | 112 | 97.5 | 99.8 | 100 | 100 | 91.2 | 100 | 98.8 | 108 | 105 | 101 | 106 | 105 | 94.3 | 102 | 105
CCc1c2c(nc3ccc(OC(=O)N4CCC(N5CCCCC5)CC4)cc13)-c1cc3c(c(=O)n1C2)COC(=O)[C@]3(O)CC [Irinotecan] (100 nM) | 92.4 | 93.4 | 98.7 | 104 | 106 | 94.9 | 101 | 86 | 99.7 | 98 | 117 | 77.4 | 109 | 89.2 | 93.4 | 102 | 99.2 | 73.8 | 99.2 | 95.3 | 92.5 | 96.6 | 109 | 103 | 98.8 | 96 | 112 | 94.8 | 96.5 | 98 | 95.4 | 96.2 | 93.8 | 102 | 111 | 106 | 100
N#Cc1ccc(COC[C@H]2O[C@@H](n3c(NCc4ccc(Cl)c(Cl)c4)nc4c(N)ncnc43)[C@H](O)[C@@H]2O)cc1 (100 nM) | 100 | 99.3 | 99.7 | 104 | 114 | 101 | 106 | 108 | 115 | 60.8 | 85.9 | 114 | 97.2 | 86.9 | 96 | 110 | 130 | 108 | 98.6 | 103 | 108 | 104 | 97.2 | 104 | 103 | 103 | 98.3 | 95.3 | 101 | 95.2 | 102 | 111 | 110 | 95.7 | 100 | 110 | 104
CCn1c(-c2nonc2N)nc2cnc(Oc3cccc(NC(=O)c4ccc(OCCN5CCOCC5)cc4)c3)cc21 (100 nM) | 103 | 90.2 | 102 | 98.4 | 63.3 | 98.3 | 100 | 101 | 96.8 | 108 | 105 | 66.9 | 97.3 | 79.4 | 82 | 101 | 119 | 95.4 | 81.8 | 88.6 | 81.9 | 99.6 | 80 | 95.5 | 95.4 | 103 | 95.9 | 102 | 99.6 | 80.5 | 75.6 | 86.5 | 103 | 97.1 | 91.4 | 98 | 97.9
NC(=O)c1ccc(I)c([N+](=O)[O-])c1 [Iniparib] (100 nM) | 95.7 | 106 | 99.1 | 53.4 | 98.5 | 103 | 94.2 | 70.8 | 83.9 | 92.4 | 99.5 | 94.2 | 100 | 83 | 67.8 | 99.1 | 128 | 97.5 | 92 | 99 | 89.6 | 84.8 | 117 | 92 | 98.8 | 96.9 | 94 | 93.1 | 95 | 92.8 | 76.1 | 90.9 | 93 | 78.5 | 85.2 | 82.7 | 80.9
COc1cc2c(NC3CCN(C(C)C)CC3)nc(N3CCC(F)(F)CC3)nc2cc1OCCCN1CCCC1 [UNC0642] (100 nM) | 100 | 101 | 101 | 89.8 | 98.1 | 105 | 97.5 | 65.3 | 99.2 | 72.7 | 80.7 | 90.2 | 99.4 | 107 | 63.9 | 108 | 131 | 101 | 103 | 96.5 | 92 | 96.5 | 97.9 | 98.5 | 89.9 | 96.1 | 93.7 | 90.3 | 99.6 | 98.6 | 94.8 | 95 | 97.9 | 108 | 105 | 96.2 | 96
CNC(=O)c1ccc(N2C(=S)N(c3ccc(C#N)c(C(F)(F)F)c3)C(=O)C2(C)C)cc1F [Enzalutamide] (100 nM) | 103 | 103 | 106 | 100 | 74.8 | 117 | 107 | 111 | 103 | 94.6 | 71.9 | 95.1 | 86.1 | 113 | 96.9 | 106 | 126 | 101 | 99.7 | 97.1 | 106 | 106 | 70.4 | 108 | 99.1 | 101 | 113 | 91.1 | 97.4 | 102 | 108 | 95.9 | 101 | 105 | 102 | 104 | 101
COCC[n+]1c2c(n(Cc3cnccn3)c1C)C(=O)c1ccccc1C2=O [YM155] (100 nM) | -29.1 | 88.9 | -16.3 | 18.9 | 21.2 | -130 | 92.8 | 75.2 | 71.7 | 22.8 | -5.41 | 106 | -8.31 | 0.07 | 19.2 | 87.8 | -69.5 | 70.4 | 5.9 | 36.9 | -0.1 | 0.53 | 2.89 | -0.47 | 20.4 | 1.4 | 9.07 | 0.92 | 1.96 | 62 | 6.51 | 1.55 | 1.98 | 27.8 | 0.08 | 26.2 | 4.6
